Tested on: SARS-CoV-2
Assay: microbe, parasite or virus in culture
Conditions: Severe acute respiratory syndrome coronavirus 2, Vero C1008, 48 h

Compound | IC50 | IC50 (read-out: pIC50 (converted))
O=c1cccc2n1C[C@@H]1CNC[C@H]2C1 [CYTISINICLINE] | > 20 µM | > 20 µM
CN1CCN(C2=Nc3ccccc3Sc3ccc(Cl)cc32)CC1 [CLOTHIAPINE] | > 20 µM | > 20 µM
Cn1c(=O)cc(N2CCC[C@@H](N)C2)n(Cc2cc(F)ccc2C#N)c1=O [TRELAGLIPTIN] | > 20 µM | > 20 µM
CN1CCc2c(c3ccccc3n2Cc2ccccc2)C1 [MEBHYDROLIN] | > 20 µM | > 20 µM
CC(C(=O)O)c1ccc2oc(-c3ccc(F)cc3)nc2c1 (stereo not drawn) | > 20 µM | > 20 µM
CCCCOC(=O)NS(=O)(=O)c1sc(CC(C)C)cc1-c1ccc(Cn2ccnc2)cc1 [BULOXIBUTID] | > 20 µM | > 20 µM
CCNCC(O)c1cccc(O)c1 (stereo not drawn) [ETILEFRINE] | > 20 µM | > 20 µM
Cc1cccc(CN2CCN(C(c3ccccc3)c3ccc(Cl)cc3)CC2)c1 (stereo not drawn) [MECLIZINE] | > 20 µM | > 20 µM
CC(C(=O)O)c1ccc2c(c1)Cc1cccnc1O2 (stereo not drawn) [PRANOPROFEN] | > 20 µM | > 20 µM
CCN(CC)CC(OC(=O)c1ccccc1)c1ccccc1 (stereo not drawn) [ELUCAINE] | > 20 µM | > 20 µM
NCCC(=O)N[C@@H](Cc1c[nH]cn1)C(=O)O [CARNOSINE] | > 20 µM | > 20 µM
CCc1cnn2c(NCc3ccc[n+]([O-])c3)cc(N3CCCC[C@H]3CCO)nc12 [DINACICLIB] | > 20 µM | > 20 µM
Cn1cnc2c1c(=O)[nH]c(=O)n2C [THEOBROMINE] | > 20 µM | > 20 µM
CCCn1cnc2c1c(=O)n(CCCCC(C)=O)c(=O)n2C [PROPENTOFYLLINE] | > 20 µM | > 20 µM
CC1CCC(C(C)C)C(O)C1 (stereo not drawn) [MENTHOL] | > 20 µM | > 20 µM
CCCCc1nc2cc(/C=C/C(=O)NO)ccc2n1CCN(CC)CC [PRACINOSTAT] | > 20 µM | > 20 µM
C/C=C1\C(=O)C[C@H]2[C@@H]3CCC4=CC(=O)CC[C@]4(C)[C@H]3CC[C@]12C [GUGGULSTERONE] | > 20 µM | > 20 µM
CC(C)(C)C(=O)C(Oc1ccc(Cl)cc1)n1cncn1 (stereo not drawn) [TRIADIMEFON] | > 20 µM | > 20 µM
CN1CC[C@@]2(C)c3cc(O)ccc3N(C)[C@H]12 | > 20 µM | > 20 µM
CN(C)CCOCC(=O)NC12CC3CC(CC(C3)C1)C2 | > 20 µM | > 20 µM
C[C@H]1O[C@@H](Oc2c(-c3ccc(O)c(O)c3)oc3cc(O)cc(O)c3c2=O)[C@@H](O)[C@@H](O)[C@@H]1O | > 20 µM | > 20 µM
CC(=O)N[C@@H](Cc1c[nH]c2ccccc12)C(N)=O [ACETYLTRYPTOPHANAMIDE] | > 20 µM | > 20 µM

Compound | IC50 | IC50 (read-out: pIC50 (converted))
Cc1[nH]c(=O)c(C#N)cc1-c1ccncc1 [MILRINONE] | > 20 µM | > 20 µM
CC(C)(S)[C@@H](N)C(=O)O [PENICILLAMINE] | > 20 µM | > 20 µM
CC(C)(C)CC(C)(C)c1cc(Cc2cc(C(C)(C)CC(C)(C)C)cc(-n3nc4ccccc4n3)c2O)c(O)c(-n2nc3ccccc3n2)c1 [BISOCTRIZOLE] | > 20 µM | > 20 µM
CN(C)CCc1c[nH]c2ccc(O)cc12 [BUFOTENINE] | > 20 µM | > 20 µM
CCN1CCN(Cc2ccc(-c3cc4c(N[C@H](C)c5ccccc5)ncnc4[nH]3)cc2)CC1 [AEE-788] | > 20 µM | > 20 µM
CNCC(=O)O [SARCOSINE] | > 20 µM | > 20 µM
O=C1NC(=O)C(c2ccccc2)(c2ccccc2)N1 [PHENYTOIN] | > 20 µM | > 20 µM
COC(=O)N1CCN(Cc2cccc(NC(=O)Nc3ccc(C)nc3)c2F)CC1 [OMECAMTIV MECARBIL] | > 20 µM | > 20 µM
COc1ccc(-c2c(C#N)c(C(=O)NN3CCCCC3)nn2-c2ccc(Cl)cc2Cl)cc1 [JHU-75528] | > 20 µM | > 20 µM
COC(=O)[C@@H](N)CCCNC(=N)N[N+](=O)[O-] | > 20 µM | > 20 µM
CNCCCC1(C)C(=O)N(c2ccccc2)c2ccccc21 (stereo not drawn) [AMEDALIN] | > 20 µM | > 20 µM
CCOc1ccc(/N=C(\C)Nc2ccc(OCC)cc2)cc1 [PHENACAINE] | > 20 µM | > 20 µM
O=c1sn(-c2cccc3ccccc23)c(=O)n1Cc1ccccc1 [TIDEGLUSIB] | > 20 µM | > 20 µM
C=C(C)C1CC=C(CO)CC1 (stereo not drawn) | > 20 µM | > 20 µM
CN1C[C@H](CNC(=O)OCc2ccccc2)C[C@@H]2c3cccc4c3c(cn4C)C[C@H]21 [METERGOLINE] | > 20 µM | > 20 µM
O=C(N[C@H]1CN2CCC1CC2)c1c[nH]c2ccsc2c1=O [PUMOSETRAG] | > 20 µM | > 20 µM
CN[C@@H](C)CC1CCCCC1 [LEVOPROPYLHEXEDRINE] | > 20 µM | > 20 µM
COc1ccc(CN(C(=O)[C@@H](N)Cc2c(C)cc(C(N)=O)cc2C)[C@H](C)c2nc(-c3ccccc3)c[nH]2)cc1C(=O)O | > 20 µM | > 20 µM
O=C1CN=C(c2ccccc2)c2cc([N+](=O)[O-])ccc2N1 [NITRAZEPAM] | > 20 µM | > 20 µM
CN1C(=O)CCS(=O)(=O)C1c1ccc(Cl)cc1 (stereo not drawn) [CHLORMEZANONE] | > 20 µM | > 20 µM
Cc1cccn2c(=O)c(-c3nnn[nH]3)cnc12 [PEMIROLAST] | > 20 µM | > 20 µM
COC(=O)N[C@H](C(=O)N1CC2(CC2)C[C@H]1c1nc(-c2ccc3c(c2)C(F)(F)c2cc(-c4ccc5[nH]c([C@@H]6[C@H]7CC[C@H](C7)N6C(=O)[C@@H](NC(=O)OC)C(C)C)nc5c4)ccc2-3)c[nH]1)C(C)C | > 20 µM | > 20 µM

Compound | IC50 | IC50 (read-out: pIC50 (converted))
O=C1CC(c2ccc(O)c(O)c2)Oc2cc(O)cc(O)c21 (stereo not drawn) | > 20 µM | > 20 µM
[O-][N+]1=C(c2ccccc2)c2cc(Cl)ccc2N=C(NCC2CC2)C1 [CYPRAZEPAM] | > 20 µM | > 20 µM
CCCOc1ccc(C(=O)OCCN(CC)CC)cc1N [PROPARACAINE] | > 20 µM | > 20 µM
CC(C)NCC1CCc2cc(CO)c([N+](=O)[O-])cc2N1 (stereo not drawn) [OXAMNIQUINE] | > 20 µM | > 20 µM
CN1CCc2cc3c(c4c2[C@@H]1Cc1ccccc1-4)OCO3 | > 20 µM | > 20 µM
CNc1ccc(-c2ccc3cc(OC[C@H](O)CF)ccc3n2)cn1 [THK-5351] | > 20 µM | > 20 µM
CC(=O)Nc1ccc(OC(C)=O)cc1 [DIACETAMATE] | > 20 µM | > 20 µM
O=C(Oc1cccc2cccnc12)c1ccccc1 [BENZOXIQUINE] | > 20 µM | > 20 µM
C=C[C@@]1(C)CC(=O)[C@@]2(O)[C@](C)(O1)[C@@H](OC(C)=O)[C@@H](OC(=O)CCN(C)C)C1C(C)(C)CC[C@H](O)[C@@]12C (stereo partly drawn) | > 20 µM | > 20 µM
CCN(CC)CCOC(=O)c1ccc(N)cc1 [PROCAINE] | > 20 µM | > 20 µM
C=C1CC[C@@]2(O)[C@H]3Cc4ccc(O)c5c4[C@@]2(CCN3CC2CC2)[C@H]1O5 | > 20 µM | > 20 µM
CC(C1=C(CCN(C)C)Cc2ccccc21)c1ccccn1 (stereo not drawn) | > 20 µM | > 20 µM
NC(=O)CN1CC(c2ccccc2)CC1=O (stereo not drawn) | > 20 µM | > 20 µM
COc1cc2c(cc1O)CC[C@@H]1[C@@H]2CC[C@]2(C)[C@@H](O)CC[C@@H]12 [2-METHOXYESTRADIOL] | > 20 µM | > 20 µM
Cc1cc(C)c(CNC(=O)c2cc(Cl)c3c(c2C)OC(C)([C@H]2CC[C@H](N(C)C)CC2)O3)c(=O)[nH]1 (stereo partly drawn) | > 20 µM | > 20 µM
CS(=O)(=O)N1CCN(Cc2cc3nc(-c4cccc5[nH]ncc45)nc(N4CCOCC4)c3s2)CC1 [PICTILISIB] | > 20 µM | > 20 µM
CCN(CC)CC#CCOC(=O)[C@](O)(c1ccccc1)C1CCCCC1 [AROXYBUTYNIN] | > 20 µM | > 20 µM
O=C(NC[C@H](O)CO)c1ccncc1Nc1ccc(I)cc1F [PIMASERTIB] | > 20 µM | > 20 µM
CC(=O)OC[C@@]1(O)C[C@@]23CC[C@@H]4c5ccoc5CC[C@@]4(C)[C@@H]2CC[C@H]1C3 | > 20 µM | > 20 µM
CCOC(=O)[N-]c1c[n+](N2CCOCC2)no1 [MOLSIDOMINE] | > 20 µM | > 20 µM

Reference: ChEMBL document CHEMBL4651402, “Screening of ~5500 FDA-approved drugs and clinical candidates for anti-SARS-CoV-2 activity” (2021)
